The text below walks through data of ChEMBL document CHEMBL2331449, “Synthesis, biological evaluation and molecular modeling of aloe-emodin derivatives as new acetylcholinesterase inhibitors” (Bioorg Med Chem, 2013).

In assay [1] the target is T1, Acetylcholinesterase (Rattus norvegicus, UniProt P37136).
T1 sequence (P37136 whole entry): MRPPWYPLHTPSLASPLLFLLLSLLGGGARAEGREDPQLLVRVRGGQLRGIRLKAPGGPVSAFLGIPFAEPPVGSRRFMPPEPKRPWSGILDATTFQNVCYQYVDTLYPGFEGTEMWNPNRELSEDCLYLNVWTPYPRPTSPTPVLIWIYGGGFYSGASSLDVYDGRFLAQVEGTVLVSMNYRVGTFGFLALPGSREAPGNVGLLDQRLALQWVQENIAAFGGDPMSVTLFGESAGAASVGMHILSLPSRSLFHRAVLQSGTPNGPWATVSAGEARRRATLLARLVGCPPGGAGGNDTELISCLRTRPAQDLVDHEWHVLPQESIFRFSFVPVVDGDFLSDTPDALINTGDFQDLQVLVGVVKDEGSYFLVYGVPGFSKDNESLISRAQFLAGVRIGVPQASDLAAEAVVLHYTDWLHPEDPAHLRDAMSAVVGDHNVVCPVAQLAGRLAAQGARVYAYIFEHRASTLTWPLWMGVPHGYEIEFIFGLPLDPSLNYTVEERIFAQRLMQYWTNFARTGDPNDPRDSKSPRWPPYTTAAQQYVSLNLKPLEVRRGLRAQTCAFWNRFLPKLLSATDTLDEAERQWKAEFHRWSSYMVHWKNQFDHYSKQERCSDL
Description: Inhibition of AChE in rat cortex using acetylthiocholine iodide as substrate preincubated with enzyme for 10 mins prior to substrate addition by Ellman's colorimetric method

Assay [2] has as its target T1, Acetylcholinesterase. Kind of assay: Inhibition of AChE in rat cortex using acetylthiocholine iodide as substrate by double Lineweaver-Burk plot analysis.

Molecule `C[N+](C)(C)Cc1cc(O)c2c(c1)C(=O)c1cccc(O)c1C2=O` displayed an IC50 on Acetylcholinesterase [1] of 3.76 µM. Molecule `COc1cccc2c1C(=O)c1c(OC)cc(C[N+](C)(C)C)cc1C2=O` came in with a concentration for half-maximal inhibition (IC50) against Acetylcholinesterase [1] of 0.54 µM. As for `O=C1c2cccc(O)c2C(=O)c2c(O)cc(C[n+]3ccccc3)cc21`, at Acetylcholinesterase [2], the Ki stood at 0.279 µM. Also, the IC50 against Acetylcholinesterase [1] turned out to be 0.09 µM. `C[N+](C)(Cc1cc(O)c2c(c1)C(=O)c1cccc(O)c1C2=O)c1ccccc1`: half-maximal inhibition on Acetylcholinesterase [1] (IC50) was put at 25.4 µM. In turn, `COc1cccc2c1C(=O)c1c(OC)cc(C[N+](C)(C)c3ccccc3)cc1C2=O` registered a 50% inhibitory concentration (IC50) on Acetylcholinesterase [1] of 13.6 µM.
